These results are taken from paper PMC12190736, “Development and In Vitro Characterization of [^3H]GMC-058 as Radioligand for Imaging Parkinsonian-Related Proteinopathies” (Cells, 2025).

The structures appear in SMILES notation. Marks after values point to notes of the source that are not given here.

Assay [1] concerns the target AD, PSP, CBD, MSA-P, PD and control brain homogenates. Briefly: Saturation binding assays with [^3H]GMC-058 in brain homogenates.
Description: For AD, CBD, PSP, and CT cases, the frozen tissue blocks were prepared as described by Stehouwer et al. [13]. In brief, tissue blocks were thawed and homogenized in ice-cold pH 7.0 phosphate-buffered saline (PBS) at 300 mg/mL on ice using a glass homogenizer, diluted 30-fold with PBS to 10 mg/mL, and homogenized a second time with a Brinkmann Polytron homogenizer before storage at −80 °C.
After incubation, samples were filtered under vacuum on equilibrated GF/B UniFilter plates (PerkinElmer) using the FilterMate 196 (PerkinElmer). Afterwards, filters were washed three times with 250 μL chilled buffer (PBS + 20% EtOH). [^3H]GMC-058 binding was measured with a beta scintillation counter (PerkinElmer). The saturation data was fitted and analyzed using the non-linear regression function of GraphPad Prism 10 software to calculate the dissociation constant (KD) and maximum number of binding sites (Bmax). Scatchard plots were prepared with GraphPad Prism 10 software to display the saturation binding data.
For assay [2], the system named is tissue microarrays (TMAs) from cases with different proteinopathies. Briefly: Autoradiography and emulsion autoradiography on tissue microarrays. It is filed as binding, human. The method, then: Tissue micro-arrays (TMAs), prepared from paraffin-embedded tissue from human post-mortem tissue as described in [14], were first de-paraffinized with two 1 h and one overnight incubation in Neo-Clear Xylene Substitute (Sigma-Aldrich, St. Louis, MO, USA) at 37 °C and then […] in three short incubations at RT with decreasing concentrations of ethanol before autoradiography with [^3H]GMC-058 was performed as described above. For the saturation binding autoradiography, duplicate slides of each TMA set were incubated with 0.3 nM to 200 nM [^3H]GMC-058. Adjacent sections were co-incubated with 5 μM of unlabeled GMC-044 to calculate NSB. The quantification of total and non-specific binding was performed via delineation of the ROIs on the whole core, except for MSA, where the ROI followed the areas in which the binding of [^3H]GMC-058 corresponded to areas with α-syn inclusions. Those cores that had imperfections or were incomplete were not included in the analysis, or only the area of remaining tissue that adhered to the glass slide was delineated. For the cores from the substantia nigra of PD patient cases, the cores selected for analysis were those containing α-syn inclusion, but no A-β deposits of pTau tangles. The information was collected from IHC analysis of adjacent TMA slides.
For high-resolution emulsion autoradiography, an autoradiography experiment with TMAs using 25 nM [^3H]GMC-058 was performed as described above. At the end of the 90 h exposure to the storage phosphor screen, slides were stored in a vacuum until dipping in a photoemulsion. In the dark, using a sodium lamp, Agar Scientific, AGP9284 type NTB emulsion was melted in a heated water bath and diluted (1:1) with ddH2O. The emulsion was poured into dipping chambers, and the slides were dipped and placed vertically to air-dry. When completely dry, the slides were placed in a light-tight slide box with desiccant and exposed at 4 C for 1–12 weeks. After exposure, the slides were developed in diluted Phenisol Developer for 2 min, rinsed in water, and fixed in hypam Fixer at 17 °C in a water bath. After rinsing in water, the slides were counterstained with Harris HTX, dehydrated in graded ethanol, cleared in Xylene, and mounted in Pertex. Images were taken using a 3D Histech P250 III scanner (3DHISTECH Kft. Hungary) at up to 15 focal layers with a distance of 0.2 μm.

For the compound `[3H]c1cc(N2CCN(c3ccc(NC(=O)C(C)(C)C)cc3)CC2)ccc1OC` [[^3H]GMC-058, N-(4-(4-(4-methoxy-[3-3H]phenyl)piperazin-1-yl)phenyl)pivalamide], the dissociation constant Kd in assay [1] (AD brain homogenates) is 5.4 nM; in assay [1] (CBD brain homogenates), more than 50 nM; in assay [1] (PSP brain homogenates), more than 50 nM; in assay [1] (control brain homogenates), more than 100 nM. The Saturation binding entry in assay [1] (PD tissue) is “No evidence of saturation binding”. Further, the Saturation binding autoradiography result in assay [2] (0.3 nM to 200 nM, TMAs) was “specific binding did not reach saturation in any of the tissues”. In addition, in assay [2] (25 nM, PD, MSA, CAA, AD, PSP and CBD, p < 0.01), the “Specific binding versus displaceable binding in controls” value is “significantly higher than the displaceable binding in controls”. Besides, in assay [2] (25 nM, TMAs), the “Co-localization of binding (high-resolution autoradiography)” value was “co-localized with α-syn inclusions in PD and MSA, with dense Aβ plaques in CAA and AD, and with p-tau inclusions in PSP and CBD”. For the same compound, the “Specific binding, mean” value in assay [2] (25 nM, TMAs, AD) is 127 ** fmol/mg tissue equivalent; in assay [2] (25 nM, TMAs, CAA), 131 ** fmol/mg tissue equivalent; in assay [2] (25 nM, TMAs, CBD), 204 *** fmol/mg tissue equivalent; in assay [2] (25 nM, TMAs, MSA), 166 ** fmol/mg tissue equivalent; in assay [2] (25 nM, TMAs, PD), 129 *** fmol/mg tissue equivalent; in assay [2] (25 nM, TMAs, PSP) it was 173 *** fmol/mg tissue equivalent. Further, the “Displaceable (off-target) binding, mean” value in assay [2] (25 nM, TMAs, NDE (non-dementia elderly controls)) was found to be 70 fmol/mg tissue equivalent; in assay [2] (25 nM, TMAs, liver control) it was 57 fmol/mg tissue equivalent.

One may read the Kd as the concentration at which binding is half-saturated. A low value points to tighter binding.
